From publication PMC11707430, “Novel antibiotics against Staphylococcus aureus without detectable resistance by targeting proton motive force and FtsH” (MedComm, 2025)

Tests used:
S. aureus [1] = test: Peritonitis-sepsis model; assay type: in vivo, ICR mice; settings: single use, i.p., 24 h postinfection, vs vehicle
Protocol: Peritonitis-sepsis model. Six to seven-week-old female ICR mice were included. […] Mice were injected with 500 μL of the suspension in the presence of 5% mucin by i.p.. An hour post-infection, the mice were administered with: 1) EL+ethanol, 2) […]-0546 (30 mg/kg), and 3) STK848198 (30 mg/kg) alone or in combination with ampicillin (AMP, 25 mg/kg)^38 or amikacin (AMK, 25 mg/kg).

S. aureus ATCC 43300 [2] = test: Periprosthetic joint infection (PJI) model; assay type: in vivo, ICR mice; settings: day 7, alone or in combination, i.p.
S. aureus [3] = test: MIC determination by microbroth dilution; assay type: cell-based, Staphylococcus aureus; settings: for antimicrobial activity (in words): structure-activity relationship of C218-0546 analogs (Figure S1)
Protocol: Minimal inhibitory concentration (MIC) determination. The detection of MIC was performed by the microbroth dilution method with reference to the previously report by Wang et al^2. Briefly, the fresh bacterial suspension was adjusted to a McF standard equivalent of 0.5 (~1.5 × 10^8 CFU/mL) and then 100-fold diluted with MH broth. Fifty microliters of bacterial suspension with equal volume of serially diluted compounds (1-128 µg/mL) were added into a 96-well cell plate (Corning Costar, the United States) and incubated at 37°C for 16-18 h. The bacterial suspension without compounds was used as a negative control. The lowest concentration that inhibited visible bacterial growth was considered as the value of MIC.

S. aureus ATCC 43300 [4] = test: One-step resistance assay (spontaneous resistance frequency); assay type: cell-based; settings: 1◊MIC
Protocol: Resistance inducing assay. Consecutive and one-step resistance experiments were performed to assess the resistance-inducing ability of the compounds against S. aureus. For consecutive resistance assay, the MICs of compounds and ciprofloxacin (CIP) were determined on the first day. […] Subsequently, the equal volume of bacterial suspension was added to the serial concentrations of compounds or CIP into a 96-well plate, the new MICs were recorded every 24h for a total of 15 days. After 15 days of passages, the CIP-induced resistant S. aureus strains were obtained. And the antimicrobial activity of the compounds against the CIP-induced strains were assessed by microdilution assay as described above. For one-step resistance assay, overnight cultured S. aureus was adjusted to a final concentration of approximately OD630=0.5 with sterile saline. One hundred microliters of the bacterial suspension were uniformly spread in pre-prepared MH agar plates containing a specific concentration of compounds. Rifampicin (RFP) was used as a positive control. The viable cells were counted on the plates after incubation at 37°C for 48h. The frequency of spontaneous drug resistance mutation was defined as the ratio of the number of resistant CFU counts to the initial CFU counts^3.

CC1(C)S[C@@H]2[C@H](NC(=O)[C@H](N)c3ccccc3)C(=O)N2[C@H]1C(=O)O [AMP, ampicillin, reference compound]
no statistical difference: bacterial loads in organs (S. aureus [1])
reduce the bacterial loads: bacterial loads in the joint and its surrounding tissue (S. aureus ATCC 43300 [2])

Cc1nc2c(C#N)c[nH]n2c(=O)c1Cc1ccccc1 [STK584829]
vanished antimicrobial activity: antimicrobial activity (in words) (S. aureus [3])

CN[C@H](CC(C)C)C(=O)N[C@H]1C(=O)N[C@@H](CC(N)=O)C(=O)N[C@H]2C(=O)N[C@H]3C(=O)N[C@H](C(=O)N[C@H](C(=O)O)c4cc(O)cc(O)c4-c4cc3ccc4O)[C@H](O)c3ccc(c(Cl)c3)Oc3cc2cc(c3O[C@@H]2O[C@H](CO)[C@@H](O)[C@H](O)[C@H]2O[C@H]2C[C@](C)(N)[C@H](O)[C@H](C)O2)Oc2ccc(cc2Cl)[C@H]1O [VAN, vancomycin]
2 µg/mL: MIC (S. aureus [3]; Newman)
0.5 µg/mL: MIC (S. aureus [3]; SA1902)
1 µg/mL: MIC (S. aureus [3]; ATCC 25923) | MIC (S. aureus [3]; ATCC 43300) | MIC (S. aureus [3]; LZB1) | MIC (S. aureus [3]; R0645) | MIC (S. aureus [3]; R82174) | MIC (S. aureus [3]; SA1901) | MIC (S. aureus [3]; SA1909) | MIC (S. aureus [3]; SA1910) | MIC (S. aureus [3]; SA1911) | MIC (S. aureus [3]; SA1912) | MIC (S. aureus [3]; SA1913) | MIC (S. aureus [3]; SA1914) | MIC (S. aureus [3]; SA1915) | MIC (S. aureus [3]; USA300)
4 µg/mL: MIC (S. aureus [3]; SAJ1 (VISA))

Cc1nc2oc3ccccc3c(=O)c2c2nc3ccccc3n12 [STK585953]
reduce the antimicrobial ability: antimicrobial activity (in words) (S. aureus [3])

CO[C@H]1/C=C/O[C@@]2(C)Oc3c(C)c(O)c4c(O)c(c(/C=N/N5CCN(C)CC5)c(O)c4c3C2=O)NC(=O)/C(C)=C\C=C\[C@H](C)[C@H](O)[C@@H](C)[C@@H](O)[C@@H](C)[C@H](OC(C)=O)[C@@H]1C [RFP, Rifampicin]
(2.83±2.9) ×10^-7: Spontaneous resistance frequency (mean±SD) (S. aureus ATCC 43300 [4])

CCCCCCCCCC(=O)N[C@@H](Cc1c[nH]c2ccccc12)C(=O)N[C@H](CC(N)=O)C(=O)N[C@@H](CC(=O)O)C(=O)N[C@@H]1C(=O)NCC(=O)N[C@@H](CCCN)C(=O)N[C@@H](CC(=O)O)C(=O)N[C@H](C)C(=O)N[C@@H](CC(=O)O)C(=O)NCC(=O)N[C@H](CO)C(=O)N[C@@H]([C@H](C)CC(=O)O)C(=O)N[C@@H](CC(=O)c2ccccc2N)C(=O)O[C@@H]1C [DAP, daptomycin]
32 µg/mL: MIC (S. aureus [3]; SAJ1 (VISA))
1 µg/mL: MIC (S. aureus [3]; ATCC 25923) | MIC (S. aureus [3]; ATCC 43300) | MIC (S. aureus [3]; LZB1) | MIC (S. aureus [3]; SA1901) | MIC (S. aureus [3]; SA1902) | MIC (S. aureus [3]; SA1909) | MIC (S. aureus [3]; SA1910) | MIC (S. aureus [3]; SA1912) | MIC (S. aureus [3]; SA1913) | MIC (S. aureus [3]; SA1915) | MIC (S. aureus [3]; USA300)
2 µg/mL: MIC (S. aureus [3]; Newman) | MIC (S. aureus [3]; R0645) | MIC (S. aureus [3]; R82174) | MIC (S. aureus [3]; SA1911) | MIC (S. aureus [3]; SA1914)

Cc1ccc(CNC(=O)c2c[nH]n3c(=O)c(Cc4ccc(Cl)cc4)c(C)nc23)cc1 [C218-0468]
did not optimize the MIC values: antimicrobial activity (in words) (S. aureus [3])
